US20250092080A1, “FLEX-NUCLEOSIDE ANALOGUES, NOVEL THERAPEUTICS AGAINST VIRUSES” (priority 2022, published 2025)
“And” between values parts separate entries of the source, which are not always exact repeats. Identical values can stand only once. Like-named read-outs stand apart in the source and are kept apart here.

Assays:
[1] = test system: Dengue Virus 4; experiment: DENV4 antiviral activity (Tables 11-15); type: cell-based
[2] = test system: Dengue Virus 2; experiment: DENV2 antiviral activity (Tables 11-15); type: cell-based; settings: for IC50: DENV2
[3] = test system: Ebola Virus; experiment: microbe, parasite or virus in culture; type: cell-based, strain Zaire
[4] = test system: Rubella Virus; experiment: Rubella Virus antiviral screening, A549; type: cell-based
[5] = test system: Rift Valley Fever Virus; experiment: microbe, parasite or virus in culture; type: cell-based
[6] = in vitro
[7] = Cell viability in A549 (parallel to Rubella screening); type: cell-based; settings: human, A549 cells, RA-0001522
[8] = test system: Huh7 cells; settings: human
[9] = in vitro; settings: human
[10] = test system: Ebola Virus; experiment: microbe, parasite or virus in culture; type: cell-based; settings: Zaire ebolavirus, Huh-7
[11] = Cytotoxicity printed in the DENV4 lines (Tables 11-15); type: cell-based; settings: cells not given
[12] = test system: SARS-CoV-2; experiment: SARS-CoV-2 (A549) #2 antiviral activity; type: cell-based; settings: Severe acute respiratory syndrome coronavirus 2, lab #2
[13] = test system: SARS-CoV-2 (WA-1); experiment: SARS-CoV-2 (WA)(A549) #1 antiviral activity; type: cell-based; settings: Severe acute respiratory syndrome coronavirus 2; WA-1 strain in A549 cells; lab #1
[14] = test system: SARS-CoV-2 (Omicron); experiment: SARS-CoV-2 (Omicron) (Calu3) #1 antiviral activity; type: cell-based; settings: Severe acute respiratory syndrome coronavirus 2; Omicron strain in Calu-3 cells; lab #1
[15] = Cytotoxicity, A549 cells, lab #1; settings: human
[16] = in vitro; settings: human; remark: listed apart in the source
[17] = test system: Epstein-Barr virus; experiment: microbe, parasite or virus in culture; type: cell-based, strain Akata; settings: human gammaherpesvirus 4, Akata
[18] = test system: Enterovirus-71; experiment: organism not typed; type: cell-based
[19] = test system: Dengue Virus 2; experiment: microbe, parasite or virus in culture; type: cell-based, strain New Guinea C; settings: Huh-7
[20] = in vitro; settings: human; remark: listed apart in the source
[21] = Cytotoxicity, Calu3 (WA test); type: cell-based; settings: human, Calu3 cells; Calu3 (WA lines)
[22] = test system: SARS-CoV-2 (WA); experiment: SARS-CoV-2 (WA)(Calu3) antiviral activity; type: cell-based, WA strain; settings: Severe acute respiratory syndrome coronavirus 2, Calu-3
[23] = test system: Venezuelan Equine Encephalitis Virus; experiment: microbe, parasite or virus in culture; type: cell-based
[24] = Cytotoxicity, A549, lab #2; settings: human, A549 cells
[25] = Cytotoxicity printed in the CHIKV line (Table 11)
[26] = test system: Chikungunya Virus; experiment: CHIKV antiviral activity (Tables 11-15); type: cell-based
[27] = in vitro; remark: listed apart in the source
[28] = test system: Vero
[29] = test system: MERS Coronavirus; type: cell-based, strain EMC

For CCC(=O)OCCOCn1cnc(-c2cnc(OC)nc2)c1 [JT-093], the IC50 ([1]; DENV4) was > 50 µM and the IC50 [2] was 21 µM.
In the case of CNc1nc(N)ncc1-c1cn([C@@H]2O[C@H](COP(=O)(NC(C)C(=O)OC(C)C)Oc3ccccc3)C(O)C2(C)F)cn1 (stereo in doubt) [CDW3-002, propan-2-yl-(2S)-2-(((((2R,3R,4R,5R)-5-(4-(2-amino-4-(methylamino)pyrimidin-5-yl)-1H-imidazol-1-yl)-4-fluoro-3-hydroxy-4-methyloxolan-2-yl)methyl)(phenyl)phosphono)amino) propanoate], the EC50 ([3]; Zaire ebolavirus, Vero, read-out: EC50) is reported as 30 µM, the IC50 [4] is reported as 69.9 µM and the IC90 [4] is reported as > 100 µM. For the same compound, the IC50 [5] was 74.9 µM, the IC90 [5] was > 100 µM and the CC50 [6] was > 100 µM. The CC50 [7] was 97.2 µM.
With COc1ncc(-c2cn([C@@H]3O[C@H](CO[P@@](=O)(N[C@@H](C)C(=O)OC(C)C)Oc4ccccc4)[C@H](O)C3(C)F)cn2)c(OC)n1 (stereo partly shown) [CDW3-007] the IC50 ([1]; DENV4) was > 50 µM, the IC50 [2] was 45 µM and the CC50 [8] was > 200 µM. The CC50 [9] was 274 µM.
COc1ncc(-c2cn([C@@H]3O[C@H](CO[P@@](=O)(N[C@@H](C)C(=O)OC(C)C)Oc4ccccc4)[C@H](O[P@@](=O)(N[C@@H](C)C(=O)OC(C)C)Oc4ccccc4)C3(C)F)cn2)c(OC)n1 (stereo partly shown) [CDW3-015] showed an IC50 ([1]; DENV4) of 16 µM, an IC90 ([1]; DENV4) of 26 µM and an IC50 [10] of 47 µM. The CC50 [11] was > 100 µM, the IC50 [12] was 2.95 µM and the IC50 [13] was 12.4 µM. For the same compound, the CC50 [9] was > 200 µM, the IC50 [14] was 19.7 µM and the CC50 [15] was > 100 µM. The CC50 [16] was 1.74 µM.
In the case of Nc1nc(=O)n([C@@H]2C[C@@H](O)[C@H](CO)O2)cc1-c1ccco1 [CHK-05, 4-amino-5-(furan-2-yl)-1-((2S,4R,5S)-4-hydroxy-5-(hydroxymethyl)tetrahydrofuran-2-yl)pyrimidin-2(1H)-one], the EC50 ([17]; read-out: EC50) is reported as 69.9 µM, the EC50 [18] is reported as 24 µM and the EC50 [19] is reported as 79 µM.
In the case of COc1nc(N)ncc1-c1cn(COCCO)cn1 [JT-001], the CC50 [20] is reported as > 100 µM, the EC90 [17] is reported as > 100 µM and the EC50 ([17]; read-out: EC50) is reported as 59.9 µM.
For CCC(CC)COC(=O)[C@H](C)N[P@](=O)(OCCOCn1cncc1-c1cnc(N)nc1OC)Oc1ccccc1 [JT-096], the CC50 [21] was > 100 µM, the IC50 ([1]; DENV4) was > 42 µM and the IC50 [10] was 52 µM. For the same compound, the IC50 [2] was > 28 µM, the IC50 [22] was 31.4 µM and the IC90 [22] was 106 µM. For the same compound, the IC50 [13] was 10.5 µM, the IC90 [13] was 46.3 µM and the CC50 [9] was 28 µM. For the same compound, the CC50 [15] was 73.3 µM.
With CNc1cc(-c2cncn2[C@@H]2O[C@H](CO[P@@](=O)(N[C@@H](C)C(=O)OC(C)C)Oc3ccccc3)[C@H](O[P@@](=O)(N[C@@H](C)C(=O)OC(C)C)Oc3ccccc3)C2(C)F)nc(N)n1 (stereo partly shown) [CEM-034] the IC50 ([1]; DENV4) was 18 µM, the IC50 [10] was 13.5 µM and the IC50 [12] was 6.47 µM. The IC50 [2] was 14 µM, the EC50 [23] was 19.7 µM and the CC50 [24] was 15.4 µM. For the same compound, the CC50 [25] was > 100 µM, the IC50 [13] was 13.6 µM and the EC50 [26] was 19.9 µM. It also gave a CC50 [9] of 85 µM, an IC50 [14] of 22.6 µM and a CC50 [15] of 4.05 µM. The CC50 [27] was > 100 µM and the CC50 [16] was 35.4 µM.
With CCC(CC)COC(=O)[C@H](C)NP(=O)(OCCOCn1cnc(-c2cnc(OC)nc2OC)c1)Oc1ccccc1 (stereo partly shown) [JT-005] the EC50 ([3]; read-out: EC50) was 12 µM and the CC50 [28] was > 100 µM.
With CCC(CC)COC(=O)[C@H](C)N[P@](=O)(OCCOCn1cncc1-c1cnc(OC)nc1OC)Oc1ccccc1 [JT-092] the CC50 [21] was > 100 µM, the IC50 [22] was 82.8 µM and the IC90 [22] was 172 µM. For the same compound, the IC50 [13] was 29.7 µM, the IC90 [13] was 273 µM and the CC50 [15] was > 100 µM.
With Cc1ccc(-c2cn([C@@H]3C[C@@H](O)[C@H](CO)O3)c(=O)[nH]c2=O)s1 [CHK-03, 1-((2S,4R,5S)-4-hydroxy-5-(hydroxymethyl)tetrahydrofuran-2-yl)-5-(5-methylthiophen-2-yl)pyrimidine-2,4(1H,3H)-dione] the CC50 [20] was > 100 µM, the EC90 [17] was 18.7 µM and the EC50 ([17]; read-out: EC50) was 2.97 µM.
Compound NC(=O)c1nc(F)c[nH]c1=O [Favipiravir, reference compound] has an EC50 ([3]; Zaire ebolavirus, Vero) of 12 µM.
In the case of O=c1nc(NO)ccn1[C@@H]1O[C@H](CO)[C@@H](O)[C@H]1O [EIDD-1931], the EC50 [29] is reported as 0.036 µg/mL and 0.034 µg/mL.
In the case of CC(C)OC(=O)[C@H](C)N[P@](=O)(OC[C@H]1O[C@@H](n2cnc(-c3cnc(N)nc3)c2)C(C)(F)[C@H]1O)Oc1ccccc1 (stereo partly shown) [CDW3-014], the inhibition at 50 µM ([1]; DENV4, read-out: % inhib) is reported as 27%, the IC50 [10] is reported as 10.5 µM and the inhibition at 50 µM ([2]; DENV2, read-out: % inhib) is reported as 13.6%. The CC50 [9] was 33.4 µM.
With COc1ncc(-c2cn(COCCO)cn2)c(OC)n1 [JT-004] the CC50 [20] was > 100 µM, the EC90 [17] was > 100 µM and the EC50 ([17]; read-out: EC50) was 86.8 µM.
For COc1ncc(-c2cn(COCCOC(C)=O)cn2)c(OC)n1 [JT-006], the CC50 [20] was > 100 µM, the EC90 [17] was > 100 µM and the EC50 ([17]; read-out: EC50) was 79.9 µM.
In the case of Nc1ccn(C[C@@H](CO)OCP(=O)(O)O)c(=O)n1 [Cidofovir, reference compound], the CC50 [20] is reported as > 100 µM, the EC50 [17] is reported as 3.92 µM and the EC90 [17] is reported as 71.4 µM.
